According to the NIST ThermoML archive (doi:10.1016/j.jct.2004.12.014):

Legend:
[1] = excess molar enthalpy (molar enthalpy of mixing); xn = mol fraction of the nth substance listed; settings: 318.15 K, 101 kPa, Liquid
[2] = xn = mol fraction of the nth substance listed; settings: 318.15 K, 101 kPa, Liquid

CCCCCOC(=O)CC [pentyl propanoate] + CCCCCCCCC
Settings | excess molar enthalpy [kcal/mol] | excess molar volume [m3/mol]
[1], x1 = 0.0584 | 0.0448 | –
[1], x1 = 0.1266 | 0.0882 | –
[1], x1 = 0.1948 | 0.124 | –
[1], x1 = 0.2641 | 0.151 | –
[1], x1 = 0.329 | 0.168 | –
[1], x1 = 0.3907 | 0.178 | –
[1], x1 = 0.4467 | 0.183 | –
[1], x1 = 0.4973 | 0.184 | –
[1], x1 = 0.5431 | 0.181 | –
[1], x1 = 0.576 | 0.176 | –
[1], x1 = 0.5969 | 0.173 | –
[1], x1 = 0.6505 | 0.161 | –
[1], x1 = 0.7085 | 0.145 | –
[1], x1 = 0.7683 | 0.124 | –
[1], x1 = 0.8297 | 0.0982 | –
[1], x1 = 0.8907 | 0.067 | –
[1], x1 = 0.9492 | 0.0339 | –
[2], x1 = 0.0661 | – | 1.34e-07
[2], x1 = 0.1312 | – | 2.47e-07
[2], x1 = 0.1902 | – | 3.19e-07
[2], x1 = 0.2517 | – | 3.88e-07
[2], x1 = 0.3122 | – | 4.31e-07
[2], x1 = 0.3722 | – | 4.6e-07
[2], x1 = 0.4344 | – | 4.77e-07
[2], x1 = 0.4911 | – | 4.73e-07
[2], x1 = 0.5498 | – | 4.62e-07
[2], x1 = 0.6072 | – | 4.37e-07
[2], x1 = 0.6646 | – | 3.9e-07
[2], x1 = 0.7225 | – | 3.49e-07
[2], x1 = 0.778 | – | 2.91e-07
[2], x1 = 0.8335 | – | 2.41e-07
[2], x1 = 0.8887 | – | 1.69e-07
[2], x1 = 0.9434 | – | 1.01e-07

CCC(=O)OC [methyl propanoate] + CCCCCCCCCCC
Settings | excess molar enthalpy [kcal/mol] | excess molar volume [m3/mol]
[1], x1 = 0.0844 | 0.118 | –
[1], x1 = 0.1733 | 0.219 | –
[1], x1 = 0.2574 | 0.3 | –
[1], x1 = 0.327 | 0.355 | –
[1], x1 = 0.3915 | 0.394 | –
[1], x1 = 0.4431 | 0.416 | –
[1], x1 = 0.4953 | 0.432 | –
[1], x1 = 0.5414 | 0.436 | –
[1], x1 = 0.5798 | 0.434 | –
[1], x1 = 0.6125 | 0.428 | –
[1], x1 = 0.6312 | 0.422 | –
[1], x1 = 0.6661 | 0.406 | –
[1], x1 = 0.7078 | 0.382 | –
[1], x1 = 0.7509 | 0.348 | –
[1], x1 = 0.7942 | 0.307 | –
[1], x1 = 0.8346 | 0.263 | –
[1], x1 = 0.8799 | 0.21 | –
[1], x1 = 0.9235 | 0.148 | –
[1], x1 = 0.9624 | 0.0795 | –
[2], x1 = 0.0968 | – | 4.8e-07
[2], x1 = 0.1299 | – | 6.34e-07
[2], x1 = 0.2313 | – | 1.02e-06
[2], x1 = 0.3207 | – | 1.285e-06
[2], x1 = 0.4052 | – | 1.433e-06
[2], x1 = 0.4772 | – | 1.508e-06
[2], x1 = 0.5465 | – | 1.514e-06
[2], x1 = 0.6062 | – | 1.482e-06
[2], x1 = 0.6609 | – | 1.417e-06
[2], x1 = 0.7121 | – | 1.302e-06
[2], x1 = 0.7581 | – | 1.188e-06
[2], x1 = 0.8001 | – | 1.041e-06
[2], x1 = 0.8396 | – | 9.14e-07
[2], x1 = 0.876 | – | 7.62e-07
[2], x1 = 0.9105 | – | 6.09e-07
[2], x1 = 0.9416 | – | 4.25e-07
[2], x1 = 0.9727 | – | 2.27e-07

CCCCOC(=O)CC [butyl propanoate] + CCCCCCCCCCCCC
Settings | excess molar enthalpy [kcal/mol] | excess molar volume [m3/mol]
[1], x1 = 0.0777 | 0.0756 | –
[1], x1 = 0.152 | 0.132 | –
[1], x1 = 0.2315 | 0.185 | –
[1], x1 = 0.3105 | 0.227 | –
[1], x1 = 0.3857 | 0.253 | –
[1], x1 = 0.4542 | 0.266 | –
[1], x1 = 0.5154 | 0.27 | –
[1], x1 = 0.5619 | 0.267 | –
[1], x1 = 0.6157 | 0.26 | –
[1], x1 = 0.6596 | 0.244 | –
[1], x1 = 0.7081 | 0.225 | –
[1], x1 = 0.7591 | 0.196 | –
[1], x1 = 0.8107 | 0.165 | –
[1], x1 = 0.857 | 0.132 | –
[1], x1 = 0.9081 | 0.0902 | –
[1], x1 = 0.9555 | 0.0467 | –
[2], x1 = 0.0406 | – | 1.23e-07
[2], x1 = 0.0973 | – | 2.84e-07
[2], x1 = 0.1791 | – | 4.62e-07
[2], x1 = 0.2615 | – | 6.48e-07
[2], x1 = 0.3352 | – | 7.42e-07
[2], x1 = 0.4049 | – | 8.02e-07
[2], x1 = 0.4702 | – | 8.32e-07
[2], x1 = 0.5333 | – | 8.34e-07
[2], x1 = 0.5918 | – | 8.19e-07
[2], x1 = 0.6472 | – | 7.81e-07
[2], x1 = 0.6989 | – | 7.36e-07
[2], x1 = 0.7487 | – | 6.45e-07
[2], x1 = 0.7961 | – | 5.77e-07
[2], x1 = 0.84 | – | 4.79e-07
[2], x1 = 0.8821 | – | 3.67e-07
[2], x1 = 0.9219 | – | 2.68e-07
[2], x1 = 0.9617 | – | 1.52e-07

CCCCCCCCCCCCCCCCC [heptadecane] + CCCCOC(=O)CC
Settings | excess molar enthalpy [kcal/mol] | excess molar volume [m3/mol]
[1], x2 = 0.0939 | 0.101 | –
[1], x2 = 0.1935 | 0.175 | –
[1], x2 = 0.2953 | 0.241 | –
[1], x2 = 0.3647 | 0.278 | –
[1], x2 = 0.4302 | 0.3 | –
[1], x2 = 0.4836 | 0.311 | –
[1], x2 = 0.5295 | 0.314 | –
[1], x2 = 0.5642 | 0.313 | –
[1], x2 = 0.5727 | 0.312 | –
[1], x2 = 0.5964 | 0.31 | –
[1], x2 = 0.6386 | 0.298 | –
[1], x2 = 0.6808 | 0.284 | –
[1], x2 = 0.7248 | 0.264 | –
[1], x2 = 0.7703 | 0.236 | –
[1], x2 = 0.8172 | 0.202 | –
[1], x2 = 0.8639 | 0.164 | –
[1], x2 = 0.911 | 0.116 | –
[1], x2 = 0.9568 | 0.0625 | –
[2], x2 = 0.1135 | – | 3.06e-07
[2], x2 = 0.2186 | – | 5.48e-07
[2], x2 = 0.3079 | – | 7.39e-07
[2], x2 = 0.3903 | – | 8.52e-07
[2], x2 = 0.4652 | – | 8.98e-07
[2], x2 = 0.5331 | – | 9.21e-07
[2], x2 = 0.5915 | – | 9.16e-07
[2], x2 = 0.6482 | – | 8.91e-07
[2], x2 = 0.7001 | – | 8.35e-07
[2], x2 = 0.7497 | – | 7.85e-07
[2], x2 = 0.7938 | – | 6.9e-07
[2], x2 = 0.8335 | – | 6.09e-07
[2], x2 = 0.8704 | – | 5.1e-07
[2], x2 = 0.907 | – | 4.01e-07
[2], x2 = 0.9407 | – | 2.87e-07
[2], x2 = 0.9701 | – | 1.43e-07

CCC(=O)OC [methyl propanoate] + CCCCCCCCC
Settings | excess molar enthalpy [kcal/mol] | excess molar volume [m3/mol]
[1], x1 = 0.084 | 0.111 | –
[1], x1 = 0.1528 | 0.19 | –
[1], x1 = 0.2279 | 0.261 | –
[1], x1 = 0.2957 | 0.313 | –
[1], x1 = 0.3549 | 0.35 | –
[1], x1 = 0.4111 | 0.375 | –
[1], x1 = 0.4611 | 0.391 | –
[1], x1 = 0.5059 | 0.4 | –
[1], x1 = 0.546 | 0.402 | –
[1], x1 = 0.5832 | 0.399 | –
[1], x1 = 0.6314 | 0.386 | –
[1], x1 = 0.6645 | 0.371 | –
[1], x1 = 0.7099 | 0.345 | –
[1], x1 = 0.7579 | 0.311 | –
[1], x1 = 0.808 | 0.268 | –
[1], x1 = 0.8604 | 0.212 | –
[1], x1 = 0.9122 | 0.148 | –
[1], x1 = 0.9599 | 0.0769 | –
[2], x1 = 0.047 | – | 2.8e-07
[2], x1 = 0.111 | – | 5.7e-07
[2], x1 = 0.2022 | – | 9.27e-07
[2], x1 = 0.2873 | – | 1.164e-06
[2], x1 = 0.3671 | – | 1.333e-06
[2], x1 = 0.4381 | – | 1.406e-06
[2], x1 = 0.5037 | – | 1.425e-06
[2], x1 = 0.5664 | – | 1.423e-06
[2], x1 = 0.6242 | – | 1.359e-06
[2], x1 = 0.6768 | – | 1.278e-06
[2], x1 = 0.7271 | – | 1.166e-06
[2], x1 = 0.7724 | – | 1.037e-06
[2], x1 = 0.817 | – | 8.78e-07
[2], x1 = 0.856 | – | 7.5e-07
[2], x1 = 0.896 | – | 5.89e-07
[2], x1 = 0.9315 | – | 3.93e-07
[2], x1 = 0.9661 | – | 1.98e-07

CCCCCOC(=O)CC [pentyl propanoate] + CCCCCCCCCCC
Settings | excess molar enthalpy [kcal/mol] | excess molar volume [m3/mol]
[1], x1 = 0.0724 | 0.0592 | –
[1], x1 = 0.153 | 0.109 | –
[1], x1 = 0.229 | 0.148 | –
[1], x1 = 0.3051 | 0.179 | –
[1], x1 = 0.3748 | 0.197 | –
[1], x1 = 0.4452 | 0.206 | –
[1], x1 = 0.5015 | 0.206 | –
[1], x1 = 0.5466 | 0.201 | –
[1], x1 = 0.556 | 0.2 | –
[1], x1 = 0.6046 | 0.192 | –
[1], x1 = 0.6573 | 0.179 | –
[1], x1 = 0.7137 | 0.161 | –
[1], x1 = 0.7726 | 0.14 | –
[1], x1 = 0.8314 | 0.112 | –
[1], x1 = 0.8897 | 0.0786 | –
[1], x1 = 0.9449 | 0.0436 | –
[2], x1 = 0.079 | – | 1.89e-07
[2], x1 = 0.1498 | – | 3.48e-07
[2], x1 = 0.2179 | – | 4.36e-07
[2], x1 = 0.2836 | – | 5.2e-07
[2], x1 = 0.3484 | – | 5.69e-07
[2], x1 = 0.4116 | – | 6.03e-07
[2], x1 = 0.4733 | – | 6.14e-07
[2], x1 = 0.5329 | – | 6.13e-07
[2], x1 = 0.5902 | – | 5.99e-07
[2], x1 = 0.6462 | – | 5.83e-07
[2], x1 = 0.7023 | – | 5.24e-07
[2], x1 = 0.7545 | – | 4.67e-07
[2], x1 = 0.8065 | – | 3.79e-07
[2], x1 = 0.8561 | – | 3.1e-07
[2], x1 = 0.9045 | – | 2.2e-07
[2], x1 = 0.9538 | – | 1.21e-07
